From the NIST ThermoML archive (doi:10.1021/je900691n)

Experiment: xn = mol fraction of the nth substance listed
Conditions: Liquid, Pycnometric method

COC(=O)OC [dimethyl carbonate] + O=C=O
mass density [kg/m3]
Conditions | 308.15 K | 313.15 K
6160 kPa, x1 = 0.1484 | 926 | –
6420 kPa, x1 = 0.118 | 904 | –
6750 kPa, x1 = 0.086 | 864 | –
6760 kPa, x1 = 0.1484 | 931 | –
6780 kPa, x1 = 0.1484 | – | 905
6900 kPa, x1 = 0.118 | 909 | –
7020 kPa, x1 = 0.118 | – | 880
7160 kPa, x1 = 0.0481 | 787 | –
7260 kPa, x1 = 0.1484 | 936 | –
7280 kPa, x1 = 0.1484 | – | 909
7340 kPa, x1 = 0.086 | – | 834
7500 kPa, x1 = 0.118 | – | 886
7520 kPa, x1 = 0.0242 | 697 | –
7620 kPa, x1 = 0.0481 | 800 | –
7630 kPa, x1 = 0.0242 | 705 | –
7680 kPa, x1 = 0.118 | 917 | –
7730 kPa, x1 = 0.1484 | 939 | –
7780 kPa, x1 = 0.0242 | 718 | –
7780 kPa, x1 = 0.1484 | – | 914
7850 kPa, x1 = 0.0481 | – | 740
7940 kPa, x1 = 0.086 | 881 | –
7990 kPa, x1 = 0.0242 | 731 | –
8050 kPa, x1 = 0.0481 | – | 748
8050 kPa, x1 = 0.118 | – | 893
8200 kPa, x1 = 0.118 | 922 | –
8220 kPa, x1 = 0.0242 | – | 606
8230 kPa, x1 = 0.0242 | 744 | –
8230 kPa, x1 = 0.0481 | 816 | –
8250 kPa, x1 = 0.0242 | – | 613
8250 kPa, x1 = 0.1484 | 943 | –
8260 kPa, x1 = 0.0481 | – | 757
8290 kPa, x1 = 0.0242 | – | 622
8290 kPa, x1 = 0.1484 | – | 918
8350 kPa, x1 = 0.086 | – | 852
8380 kPa, x1 = 0.0242 | – | 636
8480 kPa, x1 = 0.0242 | 755 | –
8490 kPa, x1 = 0.0242 | – | 650
8510 kPa, x1 = 0.0481 | – | 767
8590 kPa, x1 = 0.0242 | – | 665
8730 kPa, x1 = 0.086 | 890 | –
8740 kPa, x1 = 0.0481 | 827 | –
8760 kPa, x1 = 0.0242 | – | 681
8760 kPa, x1 = 0.1484 | – | 922
8780 kPa, x1 = 0.1484 | 947 | –
8790 kPa, x1 = 0.086 | – | 859
8870 kPa, x1 = 0.0242 | 770 | –
8920 kPa, x1 = 0.0242 | – | 692
8930 kPa, x1 = 0.0481 | – | 780
9000 kPa, x1 = 0.118 | – | 903
9030 kPa, x1 = 0.118 | 929 | –
9110 kPa, x1 = 0.0242 | – | 705
9180 kPa, x1 = 0.0242 | 780 | –
9250 kPa, x1 = 0.0481 | 837 | –
9250 kPa, x1 = 0.086 | – | 865
9250 kPa, x1 = 0.1484 | – | 926
9260 kPa, x1 = 0.1484 | 950 | –
9420 kPa, x1 = 0.0242 | – | 721
9480 kPa, x1 = 0.0481 | – | 795
9630 kPa, x1 = 0.0242 | – | 731
9630 kPa, x1 = 0.086 | 900 | –
9640 kPa, x1 = 0.0242 | 792 | –
9650 kPa, x1 = 0.118 | – | 910
9670 kPa, x1 = 0.118 | 935 | –
9690 kPa, x1 = 0.0481 | 844 | –
9720 kPa, x1 = 0.086 | – | 871
9740 kPa, x1 = 0.1484 | 953 | –
9770 kPa, x1 = 0.1484 | – | 930
9920 kPa, x1 = 0.0242 | 799 | –
9960 kPa, x1 = 0.0242 | – | 744
9960 kPa, x1 = 0.0481 | – | 807
10120 kPa, x1 = 0.0481 | 852 | –
10130 kPa, x1 = 0.086 | 905 | 876
10180 kPa, x1 = 0.0242 | 806 | –
10230 kPa, x1 = 0.1484 | 956 | –
10240 kPa, x1 = 0.1484 | – | 934
10280 kPa, x1 = 0.0242 | – | 755
10300 kPa, x1 = 0.118 | – | 916
10420 kPa, x1 = 0.0481 | – | 816
10530 kPa, x1 = 0.0481 | 858 | –
10580 kPa, x1 = 0.0242 | – | 765
10600 kPa, x1 = 0.0242 | 814 | –
10600 kPa, x1 = 0.118 | 942 | –
10740 kPa, x1 = 0.1484 | – | 937
10770 kPa, x1 = 0.1484 | 960 | –
10870 kPa, x1 = 0.086 | – | 885
10930 kPa, x1 = 0.086 | 913 | –
10980 kPa, x1 = 0.0242 | – | 775
11010 kPa, x1 = 0.0242 | 822 | –
11010 kPa, x1 = 0.0481 | – | 827
11010 kPa, x1 = 0.118 | – | 922
11080 kPa, x1 = 0.0481 | 865 | –
11120 kPa, x1 = 0.086 | – | 888
11180 kPa, x1 = 0.118 | 946 | –
11230 kPa, x1 = 0.1484 | 962 | –
11280 kPa, x1 = 0.1484 | – | 941
11290 kPa, x1 = 0.0242 | 828 | –
11340 kPa, x1 = 0.086 | 917 | –
11400 kPa, x1 = 0.0242 | – | 785
11430 kPa, x1 = 0.0481 | – | 834
11500 kPa, x1 = 0.0481 | 871 | –
11550 kPa, x1 = 0.118 | – | 927
11710 kPa, x1 = 0.086 | – | 893
11740 kPa, x1 = 0.0242 | – | 793
11740 kPa, x1 = 0.1484 | 966 | –
11750 kPa, x1 = 0.0242 | 836 | –
11770 kPa, x1 = 0.1484 | – | 944
11800 kPa, x1 = 0.086 | 921 | –
11950 kPa, x1 = 0.0481 | – | 842
12020 kPa, x1 = 0.0242 | 839 | –
12030 kPa, x1 = 0.118 | – | 930
12040 kPa, x1 = 0.0481 | 878 | –
12080 kPa, x1 = 0.0242 | – | 801
12130 kPa, x1 = 0.086 | – | 898
12210 kPa, x1 = 0.086 | 924 | –
12230 kPa, x1 = 0.1484 | 969 | –
12300 kPa, x1 = 0.118 | 954 | –
12330 kPa, x1 = 0.1484 | – | 948
12420 kPa, x1 = 0.0242 | 846 | –
12450 kPa, x1 = 0.0481 | – | 849
12520 kPa, x1 = 0.0242 | – | 809
12530 kPa, x1 = 0.0481 | 883 | –
12700 kPa, x1 = 0.086 | – | 903
12700 kPa, x1 = 0.118 | – | 935
12740 kPa, x1 = 0.1484 | 971 | –
12780 kPa, x1 = 0.0242 | 852 | –
12850 kPa, x1 = 0.086 | 929 | –
12970 kPa, x1 = 0.0481 | 888 | –
13270 kPa, x1 = 0.1484 | 975 | –
13350 kPa, x1 = 0.086 | 934 | –
13660 kPa, x1 = 0.0481 | 895 | –
13820 kPa, x1 = 0.1484 | 978 | –
13850 kPa, x1 = 0.086 | 937 | –
14140 kPa, x1 = 0.086 | 939 | –
14270 kPa, x1 = 0.1484 | 980 | –
14460 kPa, x1 = 0.0481 | 903 | –
14760 kPa, x1 = 0.086 | 944 | –
15030 kPa, x1 = 0.1484 | 984 | –
15060 kPa, x1 = 0.068 | 946 | –
15240 kPa, x1 = 0.0481 | 911 | –
15490 kPa, x1 = 0.068 | 949 | –
15690 kPa, x1 = 0.1484 | 987 | –
16010 kPa, x1 = 0.068 | 953 | –
16350 kPa, x1 = 0.1484 | 990 | –
